Emax and EC50 data for 20 compounds are collected here from patent US20250026752A1, “POSITIVE ALLOSTERIC MODULATORS OF THE MUSCARINIC ACETYLCHOLINE RECEPTOR M4” (Vanderbilt University, priority 2021, published 2025).

In general, Emax refers to the size of the effect at its maximum, as opposed to the concentration needed. As a reminder, the EC50 is the concentration at which the effect is half-maximal.

Each structure is given as a SMILES string. Some results are limits rather than exact numbers.

The target of the assay is T1, human mAChR M4 (Homo sapiens, UniProt P08173).
T1 construct: expressed in transfected cells; host or cells: CHO-K1 (ATCC), stably expressing hM4 and Gqi5
T1 sequence (P08173 1-479): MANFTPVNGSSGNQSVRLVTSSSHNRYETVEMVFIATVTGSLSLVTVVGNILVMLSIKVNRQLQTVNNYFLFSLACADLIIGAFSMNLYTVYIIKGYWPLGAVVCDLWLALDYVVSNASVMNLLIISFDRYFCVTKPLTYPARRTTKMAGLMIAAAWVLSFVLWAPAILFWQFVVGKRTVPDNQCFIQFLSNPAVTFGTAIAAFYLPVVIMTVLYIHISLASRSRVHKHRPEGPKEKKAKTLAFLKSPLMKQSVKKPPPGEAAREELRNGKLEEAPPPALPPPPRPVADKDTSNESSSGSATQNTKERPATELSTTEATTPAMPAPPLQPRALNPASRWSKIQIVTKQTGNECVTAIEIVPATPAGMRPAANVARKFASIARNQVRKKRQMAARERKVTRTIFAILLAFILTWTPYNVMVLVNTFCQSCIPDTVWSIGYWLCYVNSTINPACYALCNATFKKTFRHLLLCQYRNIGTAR
The assay is described as follows: mAChR M4 cell-based functional assay: calcium flux (Fluo-4, FDSS), positive allosteric modulator activity on the EC20 acetylcholine response, hM4-Gqi5 CHO-K1 cells. To be noted: for Emax at 30 µM: CHO-K1, human M4, % ACh maximum at 30 μM; for EC50: human M4, PAM activity on EC20 acetylcholine response, calcium flux, read-out: Human M4 EC50. As to the method: Human M4 cDNA, along with the chimeric G protein Gqi5, were transfected into Chinese hamster ovary (CHO-K1) cells purchased from the American Type Culture Collection using commercially available Lipofectamine 2000 transfection reagent (Dalby, B. et al., Methods (2004) 33(2), 95-103). hM4-Gqi5 cells were grown in Ham's F-12 medium containing 10% heat-inactivated fetal bovine serum (FBS), 20 mM […], 50 μg/mL G418 sulfate (CAS #108321-42-2), and 500 μg/mL Hygromycin B. rM4-Gqi5 cells were grown in DMEM containing 10% heat-inactivated FBS, 20 mM HEPES, 400 μg/mL G418 sulfate, and 500 μg/mL Hygromycin B.
For high throughput measurement of agonist-evoked increases in intracellular calcium, CHO-K1 cells stably expressing muscarinic receptors were plated in growth medium lacking G418 sulfate and hygromycin at 15,000 cells/20 μL/well in Greiner 384-well black-walled, tissue culture (TC)-treated, clear-bottom plates (VWR). Cells were incubated overnight at 37° C. and 5% C02. The next day, cells were washed using an ELX 405 (BioTek) with assay buffer; the final volume was then aspirated to 20 μL. Next, 20 μL of a 2.3 μM stock of Fluo-4/acetoxymethyl ester (Invitrogen, Carlsbad, CA), prepared as a 2.3 mM stock in DMSO and mixed in a 1:1 ratio with 10% (w/v) Pluronic F-127 and diluted in assay buffer, was added to the wells and the cell plates were incubated for 50 minutes at 37° C. and 5% C02. Dye was removed by washing with the ELX 405 and the final volume was aspirated to 20 μL. Compound master plates were formatted in an 11 point concentration-response curve (CRC) format (1:3 dilutions) in 100% DMSO with a starting concentration of 10 mM using a BRAVO liquid handler (Agilent). Test compound CRCs were then transferred to daughter plates (240 nL) using the Echo acoustic plate reformatter (Labcyte, Sunnyvale, CA) and then diluted into assay buffer (40 μL) to a 2× stock using a Thermo Fisher Combi (Thermo Fisher Scientific, Waltham, MA).
Calcium flux was measured using the Functional Drug Screening System (FDSS) 6000 or 7000 (Hamamatsu Corporation, Tokyo, Japan) as an increase in the fluorescent static ratio. Compounds were applied to cells (20 μL, 2×) using the automated system of the FDSS at 2-4 seconds into the protocol and the data were collected at 1 Hz. At 144 seconds, 10 μL of an EC20 concentration of the muscarinic receptor agonist acetylcholine was added (5×), followed by the addition of 12 μL of an EC80 concentration of acetylcholine at the 230 second time point (5×). Agonist activity was analyzed as a concentration-dependent increase in calcium mobilization upon compound addition. Positive allosteric modulator activity was analyzed as a concentration-dependent increase in the EC20 acetylcholine response. With the acetylcholine EC20 set as baseline, the test compound EC50 is determined as the concentration that produces an increase above baseline of 50% of the maximum increase in acetylcholine response elicted by the test compound. Antagonist activity was analyzed as a concentration-dependent decrease in the ECso acetylcholine response. Concentration-response curves were generated using a four-parameter logistical equation in XLFit curve fitting software (IDBS, Bridgewater, NJ) for Excel (Microsoft, Redmond, WA) or Prism (GraphPad Software, Inc., San Diego, CA).
Compounds were synthesized as described above. Activity (EC50 and Emax) was determined in the mAChR M4 cell-based functional assay as described above and the data are shown in Table 4. The compound numbers correspond to the compound numbers used in Examples 1-33 and Tables 1, 2, and 3.
A general note: Calcium flux is commonly read through the fluorescence of an indicator in the cells.

For the compound `[2H]C1([2H])N(c2cnc3c(c2)CN(c2ncnc4cc(F)c(F)cc24)CC3)c2ccnn2C([2H])([2H])C1([2H])[2H]` [Compound 282, 4-(3-(6,7-dihydropyrazolo[1,5-a]pyrimidin-4(5H)-yl-5,5,6,6,7,7-d6)-7,8-dihydro-1,6-naphthyridin-6(5H)-yl)-6,7-difluoroquinazoline], the Emax at 30 µM came out at 111% and the EC50 worked out at 30 nM.
The corresponding values for `COc1ccc2ncnc(N3CCc4ncc(N5CCC(C(F)(F)F)n6nccc65)cc4C3)c2c1` (stereo not shown) [Compound 90, 6-methoxy-4-[3-[7-(trifluoromethyl)-6,7-dihydro-5H-pyrazolo[1,5-a]pyrimidin-4-yl]-7,8-dihydro-5H-1,6-naphthyridin-6-yl]quinazoline] are 76% and 1360 nM.
In the same order, the values of `Fc1cc2ncnc(N3CCc4ncc(-n5cccn5)cc4C3)c2cc1F` [Compound 238, 4-(3-(1H-pyrazol-1-yl)-7,8-dihydro-1,6-naphthyridin-6(5H)-yl)-6,7-difluoroquinazoline] are 65% and 220 nM.
As to `Cc1ccc2nc(C3CC3)nc(N3CCc4ncc(-c5cn(C)nc5C)cc4C3)c2c1` [Compound 176, 2-cyclopropyl-4-[3-(1,3-dimethylpyrazol-4-yl)-7,8-dihydro-5H-1,6-naphthyridin-6-yl]-6-methyl-quinazoline], the Emax at 30 µM is 73% and the EC50 came to 740 nM.
Take `COc1ccc2ncnc(N3CCc4ncc(-c5cn(C)nc5C)cc4C3)c2c1` [Compound 13, 4-[3-(1,3-dimethylpyrazol-4-yl)-7,8-dihydro-5H-1,6-naphthyridin-6-yl]-6-methoxy-quinazoline]: the Emax at 30 µM worked out at 109% and the EC50 was determined as 370 nM.
With `Cc1ccc2nc(NCC(C)(C)O)nc(N3CCc4ncc(C(F)(F)F)cc4C3)c2c1` [Compound 208, 2-methyl-1-[[6-methyl-4-[3-(trifluoromethyl)-7,8-dihydro-5H-1,6-naphthyridin-6-yl]quinazolin-2-yl]amino]propan-2-ol], the maximal effect (Emax) at 30 µM came to 76% and the EC50 worked out at 390 nM.
In the same order, the values of `CC1CN(c2ncnc3ccc(F)cc23)Cc2cc(Nc3ncnc4ccc(F)cc34)cnc21` (stereo not shown) [Compound 237, 6-fluoro-N-(6-(6-fluoroquinazolin-4-yl)-8-methyl-5,6,7,8-tetrahydro-1,6-naphthyridin-3-yl)quinazolin-4-amine] are 55% and 1400 nM.
Regarding `CN1CCN(c2cnc3c(c2)CN(c2ncnc4cc(F)c(F)cc24)CC3)CC1=O` [Compound 273, 4-(6-(6,7-difluoroquinazolin-4-yl)-5,6,7,8-tetrahydro-1,6-naphthyridin-3-yl)-1-methylpiperazin-2-one], the Emax at 30 µM turned out to be 84% and the EC50 is 880 nM.
`Cc1nc(N2CCc3ncc(-c4cn(C)nc4C)cc3C2)c2cc(Cl)ccc2n1` [Compound 7, 6-chloro-4-[3-(1,3-dimethylpyrazol-4-yl)-7,8-dihydro-5H-1,6-naphthyridin-6-yl]-2-methyl-quinazoline]: the Emax at 30 µM turned out to be 93% and the EC50 worked out at 250 nM.
On to `Cc1nc(N2CCc3ncc(C(F)(F)F)cc3C2)c2cccc(F)c2n1` [Compound 126, 8-fluoro-2-methyl-4-[3-(trifluoromethyl)-7,8-dihydro-5H-1,6-naphthyridin-6-yl]quinazoline], for which the Emax at 30 µM turned out to be 66% and the EC50 is 310 nM.
On to `Fc1ccc2ncnc(N3CCc4ncc(-c5cnn(C6CC6)c5)cc4C3)c2c1` [Compound 1, 4-[3-(1-cyclopropylpyrazol-4-yl)-7,8-dihydro-5H-1,6-naphthyridin-6-yl]-6-fluoro-quinazoline], for which the Emax at 30 µM was 99% and the EC50 worked out at 130 nM.
With `COc1cc2c(N3CCc4ncc(N5CCCn6nccc65)cc4C3)nc(Cl)nc2cc1F` [Compound 102, 2-chloro-4-[3-(6,7-dihydro-5H-pyrazolo[1,5-a]pyrimidin-4-yl)-7,8-dihydro-5H-1,6-naphthyridin-6-yl]-7-fluoro-6-methoxy-quinazoline], the maximal response (Emax) at 30 µM amounted to 78% and the 50% effective concentration (EC50) was 210 nM.
On to `CC(C)(O)CNc1nc(N2CCc3ncc(C(F)(F)F)cc3C2)c2cc(F)ccc2n1` [Compound 203, 1-[[6-fluoro-4-[3-(trifluoromethyl)-7,8-dihydro-5H-1,6-naphthyridin-6-yl]quinazolin-2-yl]amino]-2-methyl-propan-2-ol], for which the maximum response (Emax) at 30 µM worked out at 90% and the concentration for a half-maximal effect (EC50) was 410 nM.
Consider `Fc1cc2c(N3CCc4ncc(C(F)(F)F)cc4C3)nc(Cl)nc2cc1Cl` [Compound 171, 2,7-dichloro-6-fluoro-4-[3-(trifluoromethyl)-7,8-dihydro-5H-1,6-naphthyridin-6-yl]quinazoline], for which the maximal effect (Emax) at 30 µM came to 50% and the EC50 amounted to 1280 nM.
The corresponding values for `Cc1ccc2ncnc(N3CCc4ncc(-c5cc(F)ccc5C)cc4C3)c2c1` [Compound 299, 4-(3-(5-fluoro-2-methylphenyl)-7,8-dihydro-1,6-naphthyridin-6(5H)-yl)-6-methylquinazoline] are 94% and 1200 nM.
As for `C[C@H]1CN(c2ncnc3ccc(Cl)cc23)Cc2cc(N3CCOCC3)cnc21` [Compound 263, (S)-4-(6-(6-chloroquinazolin-4-yl)-8-methyl-5,6,7,8-tetrahydro-1,6-naphthyridin-3-yl)morpholine], the Emax at 30 µM amounted to 88% and the EC50 turned out to be 160 nM.
On to `Fc1cc2c(N3CCc4ncc(C(F)(F)F)cc4C3)nc(N3CCOCC3)nc2cc1Cl` [Compound 209, 4-[7-chloro-6-fluoro-4-[3-(trifluoromethyl)-7,8-dihydro-5H-1,6-naphthyridin-6-yl]quinazolin-2-yl]morpholine], for which the Emax at 30 µM was found to be 50% and the EC50 is greater than 10000 nM.
With `FC(F)(F)c1ccc(-c2cnc3c(c2)CN(c2ncnc4ccc(Cl)cc24)CC3)cn1` [Compound 44, 6-chloro-4-[3-[6-(trifluoromethyl)-3-pyridyl]-7,8-dihydro-5H-1,6-naphthyridin-6-yl]quinazoline], the Emax at 30 µM stood at 59% and the EC50 stood at 470 nM.
Regarding `COc1ccc2ncnc(N3CCc4ncc(Nc5ccnn5C)cc4C3)c2c1` [Compound 80, 6-(6-methoxyquinazolin-4-yl)-N-(2-methylpyrazol-3-yl)-7,8-dihydro-5H-1,6-naphthyridin-3-amine], the Emax at 30 µM came to 98% and the EC50 was found to be 500 nM.
As for `CC(C)n1nccc1-c1cnc2c(c1)CN(c1ncnc3cc(F)c(F)cc13)CC2` [Compound 268, 6,7-difluoro-4-(3-(1-isopropyl-1H-pyrazol-5-yl)-7,8-dihydro-1,6-naphthyridin-6(5H)-yl)quinazoline], the Emax at 30 µM came out at 85% and the EC50 was 190 nM.
